Laboratory results: patent US5001155A, “β-ionone derivative as antifungal agent” (University of Kentucky Research Foundation, priority 1989, dated 1991)
≈ marks a conversion by molar mass, not a printed value.

Test system: Peronospora tabacina sporangia
Experiment: Inhibition of Sporangial Germination, Variant II (test 3.12)
Assay type: cell-based
Conditions: 1% water agar, 10^6 s/ml, 18° C., 16 hours, read-out: ED50 (the source's name)
Experimental: 3.12. Variant II In another in vitro test, the substances (10^2 -10^-8 ppm) were added to 1% water agar and poured into petri dishes. After cooling, the media were inoculated with 100 μl of a suspension of sporangia (10^6 s/ml) and incubated at 18° C. during 16 hours. The germinated sporangia were counted under the microscope.

Structure (SMILES) | IC50 [ng/mL]
CC(=O)/C=C/C1=C(C)C[C@@H](OC(=O)C(C)(C)C)CC1(C)C [3(R)-pivaloyloxy-β-ionone] | 0.001 (≈ 0.00342 nM)
COCC(=O)O[C@@H]1CC(C)=C(/C=C/C(C)=O)C(C)(C)C1 [3(R)-methoxyacetoxy-β-ionone] | 8e-05 (≈ 0.000285 nM)
CCOCC(=O)O[C@@H]1CC(C)=C(/C=C/C(C)=O)C(C)(C)C1 [3(R)-ethoxyacetoxy-β-ionone] | 0.006 (≈ 0.0204 nM)

Second part, the molecule after the results:

IC50 [ng/mL] | Structure (SMILES)
0.05 (≈ 0.163 nM) | CCCCCC(=O)O[C@@H]1CC(C)=C(/C=C/C(C)=O)C(C)(C)C1 [3(R)-n-hexanoyloxy-β-ionone]
2e-05 (≈ 7.18e-05 nM) | CCCC(=O)O[C@@H]1CC(C)=C(/C=C/C(C)=O)C(C)(C)C1 [3(R)-n-butyroyloxy-β-ionone, 3(R)-butyroyloxy-β-ionone]
0.4 (≈ 1.44 nM) | CC(=O)/C=C/C1=C(C)CC(OC(=O)C(C)C)CC1(C)C (stereo not drawn) [Quieson, 3-isobutyroyloxy-β-ionone, reference compound]

Test system: P. tabacina conidia
Experiment: not given
Conditions: Phytochemistry 1972, vol. 11, pp. 2055-2063; cited from earlier work

Structure (SMILES) | inhibition of germination
CC(=O)/C=C/C1=C(C)CC(OC(=O)C(C)C)CC1(C)C (stereo not drawn) [Quieson, 3-isobutyroyloxy-β-ionone, reference compound] | an inhibitor of the germination of P. tabacina conidia
